Experimental findings from PMC9000864, “Pentacyclic Triterpenoids from Sabia discolor Dunn and Their α-Glycosidase Inhibitory Activities” (Molecules, 2022) are described below.

For this experiment, the target named is α-glucosidase. As to the kind of experiment: α-glucosidase inhibition assay (PNPG method). Type of experiment: biochemical, saccharomyces cerevisiae. The note with it: for IC50: absorbance at 405 nm, 37 °C, n = 3, read-out: α-glucosidase inhibitory activity IC50; for α-glycosidase inhibitory activity (in words): compared with positive control acarbose. The source says: Altogether, dimethyl sulfoxide (DMSO; Beijing Mr. Lai Treasure Company, Beijing, China); phosphate buffer solution (PBS; HyClone); centrifuge tubes, 96 cell culture plates, and other consumables (NEST Biotechnology Co. Ltd., Beijing, China); and α-glucosidase (Sigma Company, St. Louis, MO, USA) from saccharomyces cerevisiae were obtained for this study. […] The absorbance was read using a microplate reader (Varioskan LUX, Thermo, Waltham, MA, USA) at 405 nm. The results were obtained for at least three independent experiments. The inhibitory activity of α-glucosidase was determined by the PNPG method. […] Then, 20 μL of PNPG (2.5 mmol/L) was added, mixed by shock, and incubated in a 37 °C constant-temperature incubator for 15 min. Then, 80 μL of Na2CO3 […] solution was added to stop the reaction and the absorbance was measured by a microplate reader at 405 nm. […] Inhibition rate = [(OD negative − OD blank) − (OD sample − OD background)]/(OD negative − OD blank) × 100%.

Regarding `CC1=CCC2(C)CCC3(C)C(CCC4C5(C)CCC(O)C(C)(C)C5C(O)CC43C)C2C1C` (stereo not drawn) [Compound 8, 6β-pseudotaraxasterol], the IC50 is 230 ± 13.5 nM and the “α-glycosidase inhibitory activity (in words)” value is reported as “more significant activity than the positive control”.
The corresponding values for `CC1CCC2(C)CCC3(C)C4CCC5C(C)(C)C(O)CCC5(C)C4(C)CCC3(O)C2C1C` (stereo not drawn) [Compound 9, ursan-3β, 13β-diol] are 230 ± 30.7 nM and “more significant activity than the positive control”.
As for `CC1=CC[C@]2(C)CC[C@]3(C)C(CCC4[C@@]5(C)CCC(=O)C(C)(C)C5CC[C@]43C)C2[C@H]1C` (some centres unmarked) [Compound 13, ψ-taraxasterone], the IC50 came to 260 ± 38.3 nM.
Consider `CC1(C)CC[C@]2(C)CC[C@]3(C)C(=CC=C4[C@]5(C)C(CC[C@]43C)C(C)(C)[C@@H](O)C[C@@H]5O)C2C1` (some centres unmarked) [Compound 3, juglangenin A], for which the IC50 is 110 ± 22.2 nM.
The same measure, in the same setting: next, `CC1=CCC2(C)CCC3(C)C(CCC4C5(C)C(O)CC(O)C(C)(C)C5CCC43C)C2C1C` (stereo not drawn) [Compound 7, 20-taraxastene-1β, 3β -diol]: 560 ± 33.1 nM.
Turning to `CC1(C)CC[C@]2(CO)CC[C@]3(C)C(=CCC4[C@@]5(C)C(=O)C[C@@H](O)C(C)(C)C5CC[C@]43C)C2C1` (stereo partly drawn) [Compound 1, 3α, 28-dihydroxy-12-oleanene-l-one], the IC50 worked out at 270 ± 49.9 nM and the “α-glycosidase inhibitory activity (in words)” value was “more significant activity than the positive control”.
On to `C=C(C)[C@@H]1CC[C@]2(CO)CC[C@]3(C)C(CCC4[C@@]5(C)CC[C@H](O)C(C)(C)C5CC[C@]43C)C12` (some centres unmarked) [Compound 15, birch ester alcohol], for which the 50% inhibitory concentration (IC50) amounted to 90 ± 4.5 nM and the “α-glycosidase inhibitory activity (in words)” value was “best activity”.
